The text below walks through data of patent US20230357162A1, “COMPOUNDS, COMPOSITIONS AND METHODS” (Denali Therapeutics Inc., priority 2020, published 2023).

As a reminder, the IC50 is the concentration needed to halve the response being measured.

This test relates to IL-1β secretion, THP-1 cells. Kind of test: IL-1β secretion assay in PMA-differentiated THP-1 cells stimulated with LPS and nigericin (ELISA readout). The class given is cell-based. Particulars: Homo sapiens, THP-1, inhibition of IL-1β secretion, 25 ng/mL LPS then nigericin. The procedure: Compounds as provided herein were tested in the following assay. Cell culture medium employed contained RPMI 1640 medium (89%), FBS (10%), Pen/Strep (1%), and 2-mercaptoethanol (0.05 mM). Freezing medium was made up of 90% FBS and 10% DMSO. THP-1 cells were removed from the liquid nitrogen and placed into a 37° C. water bath to thaw, until signs of ice dissipated. The cells were then added to 9 mL of warm cell culture medium and centrifuged for 5 minutes at 1000 rpm. The supernatant was discarded, and the cells were resuspended in new cell culture medium. THP-1 cells were then split and cultured in the cell culture medium, being passaged every 2-3 days with the cell density will be maintained between 5×10^5 and 1.5×10^6 viable cells/mL.
PMA was dissolved in DMSO to make a stock solution at 5 mg/ml and stored in 10 µl aliquots at -20° C. for single use. PMA is added to normal growth medium. LPS was diluted with 1 mL of water solution to provide a 1 mg/mL stock solution and stored in 15 µl aliquots at -20° C. for single use. Nigericin is diluted in ice cold 100% ethanol to 5 mg/ml (6.7 mM) and stored in 75 µL aliquots at -20° C. for single use. Serum-free media contains RPMI 1640 medium (99%), Pen/Strep (1%), and 2-mercaptoethanol (0.05 mM). The two control conditions used to qualify and normalize test compound dose-response curves were as follows: High Control = 25 ng/mL LPS, 5 µM Nigericin, 0.5% DMSO, Low Control = 25 ng/mL, LPS, 0.5% DMSO.
THP-1 cells were diluted to provide a suspension at a concentration of 1.0×10^6 cells/mL with the total volume of suspension required to enable the desired number of assay plates. The growth media was supplemented with PMA (5 ng/mL final concentration) and the cells were incubated at 37° C. under a humidified atmosphere of 5% CO2 for 40 h.
All media was carefully aspirated from each culture flask. The cells were washed carefully with 1x DPBS. The cells were then briefly digested with trypsin LE for 5 minutes at 23° C. and immediately resuspended in cell growth media. After resuspension, the cells were centrifuged at 1000 rpm for 3 minutes and the supernatant was discarded. The cells were resuspended in DPBS and once again centrifuged at 1000 rpm for 5 minutes. The supernatant was discarded and the cell pellet was resuspended in serum-free media supplemented with LPS (25 ng/mL final concentration) to enable the distribution of 30 K THP-1 cells within 45 µL of media into each well of 384-well PDL-coated plates. The 384-well plates were then incubated at 37° C. under a humidified atmosphere of 5% CO2 for 2 h. Following this period, test compounds were dispensed by Tecan across the desired concentration range with all wells normalized to a final 0.5 % DMSO concentration. The plates were then then incubated at 37° C. under a humidified atmosphere of 5% CO2 for 1 h. Following this period, 5 µL of the […] nigericin stock solution was added to each of the appropriate wells and plates were centrifuged at 1000 rpm for 30 seconds. The plates were the immediately reintroduced to the incubator at 37° C. under a humidified atmosphere of 5% CO2 for 2 h. After this time, 35 µL/well of supernatant was collected and transferred into v-bottom plate and centrifuged at 1000 rpm for 1 minute. These supernatant aliquots were analyzed using an IL-Iβ detection kit as described below. If needed, the test samples could be snap frozen and stored at -80° C. until analyzed.
To prepare each ELISA plate, capture antibody (mAb Mt175) was diluted with PBS to a final concentration of 2 µg/mL and then 20 µL of this solution was added to each well of the ELISA plate. Each plate was allowed to incubate overnight at 4° C. The next day, the capture antibody solution was removed and discarded. Each ELISA plate was washed 4 times with PBST followed by the addition of 25 µL/well of blocking buffer (Licor-927-40010) supplemented with 0.1% Tween 20. Each ELISA plate was then allowed to incubate for 1 hour at 23° C. […]
In general terms: An ELISA detects its analyte on a solid surface through an enzyme-linked reagent.

The compound `CC(C)c1nn(CC(=O)NC2(C)CCOCC2)c(=O)c2ccc(Br)cc12` [Example 44, 2-(6-bromo-1-oxo-4-propan-2-ylphthalazin-2-yl)-N-(4-methyloxan-4-yl)acetamide] had an IC50 (class column of Table 3) of 10 to 15 µM and an IC50 (numeric column of Table 3) of 12.3 µM.

For `CC(C)c1nn(CC(=O)Nc2ccc(C(F)(F)F)nc2)c(=O)c2ccc(Br)cc12` [Example 45, 2-(6-bromo-1-oxo-4-propan-2-ylphthalazin-2-yl)-N-[6-(trifluoromethyl)pyridin-3-yl]acetamide], the IC50 is, setting by setting: (class column of Table 3) under 10 µM; (numeric column of Table 3) 1.19 µM.

On to `CC(C)c1nn(CC(=O)NC2CCCC2(F)F)c(=O)c2ccc(Br)cc12` (centres unmarked) [Example 46, 2-(6-bromo-1-oxo-4-propan-2-ylphthalazin-2-yl)-N-(2,2-difluorocyclopentyl)acet amide], for which the IC50 is, setting by setting: (class column of Table 3) under 10 µM; (numeric column of Table 3) 1.17 µM.

Consider `CC(C)c1nn(CC(=O)NC2CCc3nncn3C2)c(=O)c2ccc(Br)cc12` (centres unmarked) [Example 47, 2-(6-bromo-1-oxo-4-propan-2-ylphthalazin-2-yl)-N-(5,6,7,8-tetrahydro-[1,2,4]triazolo[4,3-a]pyridin-6-yl)acetamide], for which the IC50 by setting is: (class column of Table 3) under 10 µM; (numeric column of Table 3) 2.55 µM.

Turning to `CC(C)c1nn(CC(=O)Nc2cnn(C3CCC3)c2)c(=O)c2ccc(Br)cc12` [Example 48, 2-(6-bromo-1-oxo-4-propan-2-ylphthalazin-2-yl)-N-(1-cyclobutylpyrazol-4-yl)acetamide], the IC50 reads like this: (class column of Table 3) under 10 µM; (numeric column of Table 3) 4.09 µM.

On to `CC(C)c1nn(CC(=O)Nc2ccnn2C)c(=O)c2ccc(Br)cc12` [Example 49, 2-(6-bromo-1-oxo-4-propan-2-ylphthalazin-2-yl)-N-(2-methylpyrazol-3-yl)acetamide], for which the IC50 is under 10 µM (class column of Table 3) and 1.7 µM (numeric column of Table 3).

As for `CC(C)c1nn(CC(=O)Nc2c(F)cnn2C)c(=O)c2ccc(Br)cc12` [Example 50, 2-(6-bromo-1-oxo-4-propan-2-ylphthalazin-2-yl)-N-(4-fluoro-2-methylpyrazol-3-yl)acetamide], the IC50 by setting is: (class column of Table 3) over 15 µM; (numeric column of Table 3) 27.5 µM.

For `CC(C)c1nn(CC(=O)Nc2ccnc(C3CC3)n2)c(=O)c2ccc(Br)cc12` [Example 51, 2-(6-bromo-1-oxo-4-propan-2-ylphthalazin-2-yl)-N-(2-cyclopropylpyrimidin-4-yl)acetamide], the IC50 by setting is: (class column of Table 3) under 10 µM; (numeric column of Table 3) 0.863 µM.

As to `CC(C)c1nn(CC(=O)NC2CCOC2)c(=O)c2ccc(Br)cc12` (centres unmarked) [Example 52, 2-(6-bromo-1-oxo-4-propan-2-ylphthalazin-2-yl)-N-(oxolan-3-yl)acetamide], the IC50 is under 10 µM (class column of Table 3) and 2.53 µM (numeric column of Table 3).

As for `CC(C)c1nn(CC(=O)NC2CCOCC2)c(=O)c2ccc(Br)cc12` [Example 53, 2-(6-bromo-1-oxo-4-propan-2-ylphthalazin-2-yl)-N-(oxan-4-yl)acetamide], the IC50 is under 10 µM (class column of Table 3) and 1.13 µM (numeric column of Table 3).

The compound `CC(C)c1nn(CC(=O)NC2CC3(COC3)C2)c(=O)c2ccc(Br)cc12` [Example 54, 2-(6-bromo-1-oxo-4-propan-2-ylphthalazin-2-yl)-N-(2-oxaspiro[3.3]heptan-6-yl)acetamide] displayed an IC50 (class column of Table 3) of under 10 µM and an IC50 (numeric column of Table 3) of 0.349 µM.

In the case of `CC(C)c1nn(CC(=O)Nc2cccnc2)c(=O)c2ccc(Br)cc12` [Example 55, 2-(6-bromo-1-oxo-4-propan-2-ylphthalazin-2-yl)-N-pyridin-3-ylacetamide], the IC50 was under 10 µM (class column of Table 3) and 0.71 µM (numeric column of Table 3).

Turning to `CC(C)c1nn(CC(=O)Nc2cncnc2)c(=O)c2ccc(Br)cc12` [Example 56, 2-(6-bromo-1-oxo-4-propan-2-ylphthalazin-2-yl)-N-pyrimidin-5-ylacetamide], the IC50 is under 10 µM (class column of Table 3) and 3.23 µM (numeric column of Table 3).

For `CC(C)c1nn(CC(=O)NCC2CCCOC2)c(=O)c2ccc(Br)cc12` (centres unmarked) [Example 57, 2-(6-bromo-1-oxo-4-propan-2-ylphthalazin-2-yl)-N-(oxan-3-ylmethyl)acetamide], the IC50 (class column of Table 3) is under 10 µM and the IC50 (numeric column of Table 3) is 4.4 µM.

Turning to `CC(C)c1nn(CC(=O)NCC2COCCN2C)c(=O)c2ccc(Br)cc12` (centres unmarked) [Example 58, 2-(6-bromo-1-oxo-4-propan-2-ylphthalazin-2-yl)-N-[(4-methylmorpholin-3-yl)methyl]acetamide], the IC50 was under 10 µM (class column of Table 3) and 3.99 µM (numeric column of Table 3).

Consider `CC(C)c1nn(CC(=O)Nc2ccc(C#N)cc2F)c(=O)c2ccc(Br)cc12` [Example 59, 2-(6-bromo-1-oxo-4-propan-2-ylphthalazin-2-yl)-N-(4-cyano-2-fluorophenyl)acetamide], for which the IC50 is under 10 µM (class column of Table 3) and 0.457 µM (numeric column of Table 3).

For `CC(C)c1nn(CC(=O)NC2CCOC(C)(C)C2)c(=O)c2ccc(Br)cc12` (centres unmarked) [Example 60, 2-(6-bromo-1-oxo-4-propan-2-ylphthalazin-2-yl)-N-(2,2-dimethyloxan-4-yl)acetamide], the IC50 reads like this: (class column of Table 3) under 10 µM; (numeric column of Table 3) 1.41 µM.

Turning to `CC(C)c1nn(CC(=O)Nc2ccc3cnn(C)c3c2)c(=O)c2ccc(Br)cc12` [Example 61, 2-(6-bromo-1-oxo-4-propan-2-ylphthalazin-2-yl)-N-(1-methylindazol-6-yl)acetamide], the IC50 reads like this: (class column of Table 3) under 10 µM; (numeric column of Table 3) 0.943 µM.

With `CC(C)c1nn(CC(=O)Nc2nn(C)cc2F)c(=O)c2ccc(Br)cc12` [Example 62, 2-(6-bromo-1-oxo-4-propan-2-ylphthalazin-2-yl)-N-(4-fluoro-1-methylpyrazol-3-yl)acetamide], the IC50 runs as follows: (class column of Table 3) 10 to 15 µM; (numeric column of Table 3) 10.3 µM.

Consider `Cc1cnn(C)c1NC(=O)Cn1nc(C(C)C)c2cc(Br)ccc2c1=O` [Example 63, 2-(6-bromo-1-oxo-4-propan-2-ylphthalazin-2-yl)-N-(2,4-dimethylpyrazol-3-yl)acetamide], for which the IC50 was 10 to 15 µM (class column of Table 3) and 12.8 µM (numeric column of Table 3).

Take `Cc1cc(NC(=O)Cn2nc(C(C)C)c3cc(Br)ccc3c2=O)n(C)n1` [Example 64, 2-(6-bromo-1-oxo-4-propan-2-ylphthalazin-2-yl)-N-(2,5-dimethylpyrazol-3-yl)acetamide]: the IC50 reads like this: (class column of Table 3) under 10 µM; (numeric column of Table 3) 0.392 µM.

For the compound `CC(C)c1nn(CC(=O)NCC2CN(C)CCO2)c(=O)c2ccc(Br)cc12` (centres unmarked) [Example 65, 2-(6-bromo-1-oxo-4-propan-2-ylphthalazin-2-yl)-N-[(4-methylmorpholin-2-yl)methyl]acetamide], the IC50 reads like this: (class column of Table 3) over 15 µM; (numeric column of Table 3) 22.7 µM.

On to `CC(C)c1nn(CC(=O)NC2CCC(=O)N(C)C2)c(=O)c2ccc(Br)cc12` (centres unmarked) [Example 66, 2-(6-bromo-1-oxo-4-propan-2-ylphthalazin-2-yl)-N-(1-methyl-6-oxopiperidin-3-yl)acetamide], for which the IC50 reads like this: (class column of Table 3) under 10 µM; (numeric column of Table 3) 2.44 µM.

`CC(C)c1nn(CC(=O)Nc2ccnn2C2COC2)c(=O)c2ccc(Br)cc12` [Example 67, 2-(6-bromo-1-oxo-4-propan-2-ylphthalazin-2-yl)-N-[2-(oxetan-3-yl)pyrazol-3-yl]acetamide] yielded an IC50 (class column of Table 3) of under 10 µM and an IC50 (numeric column of Table 3) of 1.03 µM.

As to `CC(C)c1nn(CC(=O)Nc2ncc(Cl)cc2F)c(=O)c2ccc(Br)cc12` [Example 68, 2-(6-bromo-1-oxo-4-propan-2-ylphthalazin-2-yl)-N-(5-chloro-3-fluoropyridin-2-yl)acetamide], the IC50 runs as follows: (class column of Table 3) under 10 µM; (numeric column of Table 3) 0.11 µM.
